Measured values reported in patent publication US20250346599A1, “TRICYCLIC PHTHALAZINONE PARP INHIBITORS AND METHODS OF USE” (Valo Health, Inc., priority 2022, published 2025).
pIC50: −log10 of the molar value. Values joined by “and” are separate entries in the source; they are usually repeats but may differ in a detail not shown here. Equal entries are not always repeated.

Molecular target: PARP1 enzyme (Homo sapiens (Human), UniProt P09874)
Assay: PARP Mass Spectroscopy Assay (PARP1 enzymatic assay, nicotinamide detection)
Type: biochemical
Conditions: 5 nM PARP1, 5 uM β-NAD, 60 min at RT, NAM by mass spectrometry
Excerpt: Materials and Reagents: The PARP1 enzyme was purchased from BPS Bioscience (cat #80501). Tris-HCl, pH 8.0 was purchased from Corning (cat #46-031-CM). Magnesium chloride was purchased from Thermo Fisher Scientific (previously Honeywell Fluka, cat #63020-1L). All other assay components, activated DNA (cat #D4522), core histones (cat #SRP6590), β-Nicotinamide adenine dinucleotide (β-NAD—cat #N8285), 3ABA PARP1 small molecule inhibitor (from the PARP1 Enzyme Activity Assay kit, cat #17-10149), Sodium Chloride (NaCl, cat #56546-1L), Triton X-100 (cat #93443), Dithiothreitol (DTT, cat #43816-250 ML) were all purchased from Millipore Sigma.
Assay Buffer: The assay buffer includes the following reagents: 50 mM Tris-HCl pH 8.0, 50 mM NaCl, 10 mM, MgCl2, 0.01% Triton X-100, and 1 mM DTT.
PARP1 enzymatic assays were performed in 384-well plates in a total volume of 20 μL in the assay buffer. For concentration response curves, compounds were serially diluted 3-fold from 2 mM highest concentration […] to generate a 10-point curve, and 125 nL was transferred to the assay plate using the Echo acoustic dispenser for a final concentration range of 26.6 μM to […] in 10 μL reaction. Five microliters of 10 nM PARP1 enzyme and 100 nM core histones (2×) mix were added to the assay plates and pre-incubated for 30 mins at room temperature (RT). The reaction was initiated by the addition of a 5 μL of 10 uM β-NAD plus 0.02 mg/mL activated DNA (2×) mix. The reaction is incubated for 60 min at RT. The final concentration of the PARP1 enzyme and substrate concentrations were 5 nM and 5 uM, respectively. The positive control (high signal) and negative control (low signal) wells had 125 nL of DMSO in place of compounds. After the incubation is complete, the reaction is stopped by the addition of 10 μL of 10 uM of the 3ABA PARP1 inhibitor, incubated for 5 min at RT, and placed in the −80 C freezer for shipment to the Valo Health site in Branford Connecticut where mass spectrometry will be used to directly detect quantities of nicotinamide (NAM).
The percent inhibition of enzyme activity was calculated according to the following equation: […]
The values of Ssample, Shigh, and Slow in the equation refer to the NAM concentration detected in the assay wells, high control wells, and low control wells, respectively. To determine inhibitor IC50 values, % inhibition of the CRCs (concentration response curves) was fitted to the standard single-site four-parameter logistic equation.

PARP1 enzyme, sequence (P09874 whole entry): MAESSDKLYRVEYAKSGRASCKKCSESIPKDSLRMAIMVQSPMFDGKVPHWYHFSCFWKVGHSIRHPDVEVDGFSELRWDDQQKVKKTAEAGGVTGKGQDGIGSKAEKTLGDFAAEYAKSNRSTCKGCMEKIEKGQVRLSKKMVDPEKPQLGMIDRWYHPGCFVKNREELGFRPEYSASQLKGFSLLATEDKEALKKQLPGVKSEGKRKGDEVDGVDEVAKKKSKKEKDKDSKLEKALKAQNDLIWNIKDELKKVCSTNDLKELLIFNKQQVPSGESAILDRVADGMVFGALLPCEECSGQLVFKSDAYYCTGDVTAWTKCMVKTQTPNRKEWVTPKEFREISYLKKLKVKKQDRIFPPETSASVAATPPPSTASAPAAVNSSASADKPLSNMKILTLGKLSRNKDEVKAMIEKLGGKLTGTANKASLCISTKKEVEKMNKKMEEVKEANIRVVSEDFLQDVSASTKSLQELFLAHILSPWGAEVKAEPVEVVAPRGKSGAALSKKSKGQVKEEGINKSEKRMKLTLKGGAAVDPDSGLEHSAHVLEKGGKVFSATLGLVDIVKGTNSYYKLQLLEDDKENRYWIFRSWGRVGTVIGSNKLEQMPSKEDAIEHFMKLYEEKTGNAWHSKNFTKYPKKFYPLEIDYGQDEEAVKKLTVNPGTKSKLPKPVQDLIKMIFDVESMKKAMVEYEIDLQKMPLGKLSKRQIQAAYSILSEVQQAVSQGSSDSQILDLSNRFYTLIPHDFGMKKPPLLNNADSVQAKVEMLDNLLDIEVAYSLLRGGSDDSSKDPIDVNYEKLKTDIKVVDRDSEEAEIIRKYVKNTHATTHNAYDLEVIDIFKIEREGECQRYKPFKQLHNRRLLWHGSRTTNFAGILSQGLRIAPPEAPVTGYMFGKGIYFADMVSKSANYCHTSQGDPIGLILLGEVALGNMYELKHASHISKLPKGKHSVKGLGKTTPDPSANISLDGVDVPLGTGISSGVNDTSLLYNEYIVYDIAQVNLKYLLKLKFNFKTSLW

| SMILES | pIC50 |
| --- | --- |
| CC1Nc2cc(F)cc3c(=O)[nH]nc(c23)C1c1ccc(Cl)cc1F (stereo not drawn) [Compound 0196-5] | 8.05 |
| COCCN1CCC(C2Nc3cc(F)cc4c(=O)[nH]nc(c34)C2c2ccc(F)cc2F)C1 (stereo not drawn) [Compound 0111-6, 12-(2,4-difluorophenyl)-7-fluoro-11-[1-(2-methoxyethyl)pyrrolidin-3-yl]-2,3,10-triazatricyclo[7.3.1.0^{5,13}]trideca-1,5(13),6,8-tetraen-4-one] | 6.79 |
| O=c1[nH]nc2c3c(cc(F)cc13)NC(C1CCC(F)(F)CC1)C2c1c(F)cc(F)cc1F (stereo not drawn) [Compound 0212A] | 7.82 and 7.70 |
| CC1Nc2cc(F)cc3c(=O)[nH]nc(c23)C1C1CCCN(C)C1 (stereo not drawn) [Compound 0198-5] | 6.61 |
| O=c1[nH]nc2c3c(cc(F)cc13)NC(COCc1ccccc1)C2c1ccc(F)cc1F (stereo not drawn) [Compound 0267-4] | 7.89 |
| CN1CCC[C@H]([C@H]2CNc3cc(F)cc4c(=O)[nH]nc2c34)C1 [Compound 0191-8] | 7.34 |
| C[C@H]1Nc2cc(F)cc3c(=O)[nH]nc(c23)[C@H]1[C@@H]1CCCN(C)C1 [Compound 0198B] | 7.41 |
| O=c1[nH]nc2c3c(cc(F)cc13)N[C@@H](c1c(F)cc(F)cc1F)[C@@H]2C1CCNCC1 [Compound 0098B] | 7.52 |
| CC[C@H]1Nc2cc(F)cc3c(=O)[nH]nc(c23)[C@@H]1c1ccccc1Cl [Compound 0206B, (11R,12R)-12-(2-chlorophenyl)-11-ethyl-7-fluoro-2,3,10-triazatricyclo[7.3.1.0^{5,13}]trideca-1,5(13),6,8-tetraen-4-one] | 8.22 |
| O=c1[nH]nc2c3c(cc(F)cc13)NC(C1CCCN1)C2c1ccccc1Cl (stereo not drawn) [Compound 0181-6] | 5.92 |
| O=c1[nH]nc2c3c(cc(F)cc13)N[C@@H](C1CCN(C3CCC(F)(F)CC3)CC1)[C@@H]2c1ccccc1Cl [Compound 0261B] | 6.52 |
| Cn1ncnc1[C@H]1c2n[nH]c(=O)c3cc(F)cc(c23)N[C@@H]1C1CCN(C2CCC(F)(F)CC2)CC1 [Compound 0266B] | 5.24 |
| CC(=O)N1CCC([C@H]2Nc3cc(F)cc4c(=O)[nH]nc(c34)[C@@H]2c2ccccc2Cl)CC1 [Compound 0223A] | 5.92 |
| O=c1[nH]nc2c3c(cc(F)cc13)NC[C@H]2c1ccc(Cl)cc1F [Compound 0189A] | 7.10 |
| Cn1ncnc1[C@@H]1c2n[nH]c(=O)c3cc(F)cc(c23)N[C@H]1C1CCN(C2CCC(F)(F)CC2)CC1 [Compound 0266A] | 5.77 |
| C[C@@H]1Nc2cc(F)cc3c(=O)[nH]nc(c23)[C@H]1[C@@H]1CCCCN1C [Compound 0199D] | 7.60 |
| CC(C)(C)C[C@H]1Nc2cc(F)cc3c(=O)[nH]nc(c23)[C@@H]1c1c(F)cc(F)cc1F [Compound 0219A] | 6.29 |
| N#Cc1ccc([C@H]2CNc3cc(F)cc4c(=O)[nH]nc2c34)cc1F [Compound 0186B] | 7.39 |
| C[C@H]1Nc2cc(F)cc3c(=O)[nH]nc(c23)[C@@H]1C1CCN(C)CC1 [Compound 0197A] | 6.35 |
| O=c1[nH]nc2c3c(cc(F)cc13)NC[C@@H]2c1ccc(Cl)c(F)c1 [Compound 0188B, (S)-9-(4-chloro-3-fluorophenyl)-5-fluoro-2,7,8,9-tetrahydro-3H-pyrido[4,3,2-de]phthalazin-3-one] | 7.00 |
| O=c1[nH]nc2c3c(cc(F)cc13)NC(COCc1ccccc1)C2c1ccccc1Cl (stereo not drawn) [Compound 0257-4] | 6.23 |
| CN1CCC([C@H]2Nc3cc(F)cc4c(=O)[nH]nc(c34)[C@@H]2c2ccc(F)cc2F)CC1 [Compound 0110A, (8R,9R)-9-(2,4-difluorophenyl)-5-fluoro-8-(1-methylpiperidin-4-yl)-2,7,8,9-tetrahydro-3H-pyrido[4,3,2-de]phthalazin-3-one] | 5.85 |
| CC(C)[C@H]1Nc2cc(F)cc3c(=O)[nH]nc(c23)[C@@H]1c1ccccc1Cl [Compound 0222A] | 7.64 |
| O=c1[nH]nc2c3c(cc(F)cc13)N[C@H]([C@@H]1CCOC1)[C@H]2c1ccccc1Cl [Compound 0121B] | 6.63 |

The next lines start with the values.

| pIC50 | SMILES |
| --- | --- |
| 6.93 | C[C@H]1Nc2cc(F)cc3c(=O)[nH]nc(c23)[C@@H]1[C@@H]1CCCCN1C [Compound 0199B] |
| 7.66 | CN1CCCC[C@@H]1[C@H]1CNc2cc(F)cc3c(=O)[nH]nc1c23 [Compound 0192B] |
| 7.57 | CN1CCCC[C@@H]1[C@@H]1CNc2cc(F)cc3c(=O)[nH]nc1c23 [Compound 0192A] |
| 8.15 | O=c1[nH]nc2c3c(cc(F)cc13)N[C@@H](C1CCN(C3CCC(F)(F)CC3)CC1)[C@@H]2c1ccc(F)cc1F [Compound 0271B] |
| 7.74 | C[C@@H]1Nc2cc(F)cc3c(=O)[nH]nc(c23)[C@H]1c1ccccc1Cl [Compound 0172B, (8S,9S)-9-(2-chlorophenyl)-5-fluoro-8-methyl-2,7,8,9-tetrahydro-3H-pyrido[4,3,2-de]phthalazin-3-one] |
| 5.28 | CN1CCC([C@H]2Nc3cc(F)cc4c(=O)[nH]nc(c34)[C@@H]2c2ccccc2Cl)CC1 [Compound 0116A, (8R,9R)-9-(2-chlorophenyl)-5-fluoro-8-(1-methylpiperidin-4-yl)-2,7,8,9-tetrahydro-3H-pyrido[4,3,2-de]phthalazin-3-one] |
| 6.45 | O=c1[nH]nc2c3c(cc(F)cc13)N[C@H](C1CCC(F)(F)CC1)[C@H]2c1ccccc1Cl [Compound 0213A] |
| 6.57 | O=c1[nH]nc2c3c(cc(F)cc13)NC[C@H]2c1ccc(F)cc1F [Compound 0114A, (R)-9-(2,4-difluorophenyl)-5-fluoro-2,7,8,9-tetrahydro-3H-pyrido[4,3,2-de]phthalazin-3-one] |
| 7.46 | CN1CCC[C@@H]([C@H]2CNc3cc(F)cc4c(=O)[nH]nc2c34)C1 [Compound 0191D] |
| 7.30 | CN1CCC[C@H]([C@@H]2CNc3cc(F)cc4c(=O)[nH]nc2c34)C1 [Compound 0191C] |
| 7.35 | C[C@@H]1Nc2cc(F)cc3c(=O)[nH]nc(c23)[C@H]1[C@H]1CCCN(C)C1 [Compound 0198C] |
| 7.19 | C[C@H]1Nc2cc(F)cc3c(=O)[nH]nc(c23)[C@@H]1[C@H]1CCCCN1C [Compound 0199A] |
| 7.15 | O=c1[nH]nc2c3c(cc(F)cc13)NC(C1CCNC1)C2c1ccc(F)cc1F (stereo not drawn) [Compound 0173A, 12-(2,4-difluorophenyl)-7-fluoro-11-(pyrrolidin-3-yl)-2,3,10-triazatricyclo[7.3.1.0^{5,13}]trideca-1,5(13),6,8-tetraen-4-one] |
| 6.25 | COCCN1CCC(C2Nc3cc(F)cc4c(=O)[nH]nc(c34)C2c2ccccc2Cl)C1 (stereo not drawn) [Compound 0117-8, 12-(2-chlorophenyl)-7-fluoro-11-[1-(2-methoxyethyl)pyrrolidin-3-yl]-2,3,10-triazatricyclo[7.3.1.0^{5,13}]trideca-1,5(13),6,8-tetraen-4-one] |
| 6.97 | N#Cc1ccc([C@H]2c3n[nH]c(=O)c4cc(F)cc(c34)N[C@@H]2C2CCC(F)(F)CC2)cc1F [Compound 0214A] |
| 6.07 | O=c1[nH]nc2c3c(cc(F)cc13)N[C@@H]([C@H]1CCOC1)[C@@H]2c1ccccc1Cl [Compound 0121C] |
| 7.74 | CC1Nc2cc(F)cc3c(=O)[nH]nc(c23)C1c1ccc(Cl)c(F)c1 (stereo not drawn) [Compound 0195-5, 9-(4-chloro-3-fluorophenyl)-5-fluoro-8-methyl-2,7,8,9-tetrahydro-3H-pyrido[4,3,2-de]phthalazin-3-one] |
| 6.03 | O=c1[nH]nc2c3c(cc(F)cc13)N[C@@H](C1CCN(C3CCC(F)(F)CC3)CC1)[C@@H]2c1ccc(F)cc1F [Compound 0271A] |
| 7.70 | N#Cc1ccc([C@@H]2c3n[nH]c(=O)c4cc(F)cc(c34)N[C@H]2C2CCC(F)(F)CC2)cc1F [Compound 0214B] |
| 8.70 | O=c1[nH]nc2c3c(cc(F)cc13)N[C@H](C1(F)CC1)[C@H]2c1ccccc1Cl [Compound 0260A] |
| 7.04 | O=c1[nH]nc2c3c(cc(F)cc13)NC(C1CCNC1)C2c1ccccc1Cl (stereo not drawn) [Compound 0171, 12-(2-chlorophenyl)-7-fluoro-11-(pyrrolidin-3-yl)-2,3,10-triazatricyclo[7.3.1.0^{5,13}]trideca-1,5(13),6,8-tetraen-4-one] |
| 6.55 | N#Cc1ccc([C@H]2c3n[nH]c(=O)c4cc(F)cc(c34)N[C@@H]2C2CCN(C3CCC(F)(F)CC3)CC2)c(F)c1 [Compound 0276A] |
| 6.97 | O=c1[nH]nc2c3c(cc(F)cc13)NC(C1(F)CC1)[C@H]2c1ccccc1Cl (stereo partly drawn) [Compound 0260B] |
| 8.40 | O=c1[nH]nc2c3c(cc(F)cc13)N[C@@H](C1(F)CC1)[C@@H]2c1ccc(Cl)cc1F [Compound 0255A] |
